Literature values in patent publication EP4759824A1, “DANSYLAMIDE-MODIFIED COMPOUNDS TARGETING PSMA, PREPARATION METHOD THEREFOR, AND USE THEREOF” (Yantai Lannacheng Biotechnology Co., Ltd., priority 2023, dated 2025).

Test system: PSMA-positive mCRPC
Conditions: combined with SOC, mCRPC patients

lutetium Lu-177 vipivotide tetraxetan [^177Lu-PSMA-617]
median radiographic progression-free survival (SOC alone 3.4 months): 8.7 months | median overall survival (SOC alone 11.3 months): 15.3 months
